{"source": "patent US9080199B2", "about": "“Method to generate novel bioactive molecules” (priority 2010, dated 2015)", "tested_on": "S. aureus N315 (MRSA N315)", "experiment": "Disk / agar diffusion bioactivity test (zone of inhibition) against S. aureus N315", "assay_type": "cell-based, Staphylococcus aureus", "settings": "clavu7 extract compounds/fractions, 25-30 μL on 6 mm filter disks on N315 lawn on TSA, 16-20 hours at 30° C.", "procedure": "The two compounds were separated from one another by re-injecting the 11 to 11.5 minute fraction into the LC-MS system using an isocratic mobile phase of 30% methanol in water. Once separated, the two compounds were collected, concentrated by evaporating the solvent to a total volume of approximately 50 μL, and tested against S. aureus N315 to definitively determine which one is bioactive. This turned out to be m/z=215, which was identified as holomycin. Bioactivity testing is carried out by first spreading approximately 150 μL of an OD600˜0.01 S. aureus N315 culture in TSB onto a TSA plate to create a lawn of S. aureus N315. Next, 25-30 μL of each sample is deposited onto 6 mm sterile filter disks. The disks are allowed to dry and then placed onto the S. aureus N315 lawn. This plate is incubated for 16-20 hours at 30° C., after which it was examined for the appearance of a zone of inhibition around the disks.\nThe methanol sample was then concentrated further using a vacuum centrifuge (speed-vac or speed-yap) until approximately 100 μL remained. A 25 μL aliquot was then used to test for bioactivity against MRSA N315. This aliquot, which has not yet been fractionated on an HPLC system, is called a “crude extract.” About 40-50 μL of the concentrated sample was also injected into an HPLC-MS system. […]", "note": "“Also recorded” adds a separate entry of the source."}
{"smiles": "CC(=O)Nc1c2sscc-2[nH]c1=O", "note": "[holomycin]", "values": [{"measurement": "bioactivity against S. aureus N315 (zone of inhibition around disks)", "value": "inhibits growth; also recorded: bioactive"}, {"measurement": "bioactivity against S. aureus N315 (zone of inhibition around disks)", "setting": "listed as m/z=215 compound", "value": "bioactive"}]}
